According to patent publication EP0563732A1, “7-oxo-7H-pyrido(1,2,3-de)(1,4)benzoxazinecarboxylic acids and esters and their use as antiviral agents” (BAYER AG, priority 1992, dated 1993):
Structures can show the parent of a compound that is named as a salt.

test system: Hepatitis B Virus; assay: HBV test system: HBV-DNA in the supernatant of transfected hepatoma cells (PEG precipitation, non-radioactive HBV DNA probe); type: cell-based; settings: HepG2.2.15, 50% inhibition of HBV-DNA concentration in supernatant, HEP G2.2.15 cells, read-out: IC₅₀
Source text: Der Nachweis wurde in mit Hepatitis B Virus DNA transfizierten Hepatomzellen (HEP G2.2.15) geführt. Die Ergebnisse der unten aufgeführten Beispiele wurden zu dem in der folgenden Literaturangabe [Sells, M.A.; Chen, M.L., Acs, G., Proc. Natl. Acad. Sci. USA S. 1005 - 1009, Vol. 84 (1987] beschriebenen HBV-Testsystem ermittelt:
Transfizierte Hepatomzellen (HEP G2.2.15) wurden mit verschiedenen Konzentrationen an der jeweiligen Verbindung inkubiert. Durch Behandlung der transfizierten Hepatomzellinie HEP G2.2.15 mit den erfindungsgemäßen Verbindungen konnte das […] der virusspezifischen HBV-DNA im Überstand sowie eine Reduktion des HBsAg Spiegels gezeigt werden. Es wurde weiter gefunden, daß die erfindungsgemäßen Verbindungen zu einer Reduktion der replikativen Intermediate der Hepatitisviren führen. Im Überstand der Zellkulturen wurde nach PEG Fällung der Gehalt an HBV-DNA bestimmt. Dies geschah unter Verwendung einer nicht radioaktiv markierten HBV genomischen DNA Probe [Pauly, P., 1982, Ph.D. Thesis, University of Göttingen, F.R.G.; Köchel et al., 1990, EMBL, Accession-Nr. X 51790]. Gleichzeitig erfolgte der Nachweis der Beeinflussung der HBsAg Bildung mittels eines kommerziell erhältlichen Elisa Tests. Die angegebenen IC₅₀-Werte beziehen sich auf die Substratkonzentrationen, die unter den oben aufgeführten Testbedingungen eine 50%ige Hemmung der HBV-DNA Konzentration im Überstand bewirken. Tabelle A
Gleichzeitig erfolgte die Bestimmung des möglicherweise vorhandenen cytotoxischen Einflusses der erfindungsgemäßen Verbindungen mittels Kristallviolettfärbung bzw. über den Einbau von radioaktiv markiertem Thymidin in die zelluläre DNA.

`CN1CCN(c2c(F)cc3c(=O)c(C(=O)O)cn4c3c2OC(C(C)(C)C)=C4)CC1` [Beispiel 1, 2-tert-Butyl-9-fluor-10-(4-methyl-1-piperazinyl)-7-oxo-7H-pyrido[1,2,3-de][1,4]-benzoxacin-6-carbonsäure] and `CC1=COc2c(N3CCNCC3)c(F)cc3c(=O)c(C(=O)O)cn1c23` [Beispiel 39] are the same in IC50: 100 nM for the first, 100 nM for the second.

Going from `CC1=COc2c(N3CCOCC3)c(F)cc3c(=O)c(C(=O)O)cn1c23` [Beispiel 16] to `COC(=O)c1cn2c3c(c(N4CCNCC4)c(F)cc3c1=O)OC=C2C` [Beispiel 33], the IC50 falls from 5000 nM to 500 nM (10-fold). The second is the more potent here.

Compound `CCOC(=O)c1cn2c3c(c(N4CCC(N)C4)c(F)cc3c1=O)OC(c1ccc(OC)cc1)=C2` (centres unmarked) [Beispiel 38, 10-(3-Amino-1-pyrrolidinyl)-9-fluor-2-(4-methoxyphenyl)-7-oxo-7H-pyrido[1,2,3-de][1,4]benzoxacin-6-carbonsäureethylester-hydrochlorid] has an IC50 of 5000 nM.
